Like-named read-outs stand apart in the source and are kept apart here.
Experiments:
[1] = test system: human leukaemia HEL cell line; experiment: MTT in vitro cytotoxicity assay, HEL; assay type: cell-based; details: read-out: IC50 (µM) HEL
Method: (§1) As summarized in Table 1, five cancer cell lines, including MDA-MB-231, PC3, WM9, HEL and K562 cell lines, were induced for testing the anti-cancer activities of those derivatives. The first line anti-cancer drug, vincristine, was treated as positive control. All the test compounds were dissolved in DMSO. The preliminary structure-activity relationship of all compounds against the 5 cancer cell lines was also investigated.
(§2) Human erythroleukemic cell lines HEL and K562, human breast cell lines MDA-MB-231, human prostate cell lines PC3 and human melanoma cell lines WM9 were cultured in RPMI (HEL and K562) or DMEM (MDA-MB-231, PC3, WM9) medium (high glucose) supplemented with 5% FBS (HyClone, GE Healthcare, Parramatta, Australia) and 1% ampicillin/streptomycin.
(§3) Cells were cultured in 96-well plates at densities of 1 × 10^5/well. The plates were pre-incubated at 37 °C for 24 h to allow adaptation of cells prior to the addition of the test compounds. Then, compounds were added to cells in triplicate in several doses, and incubated for an additional 2 days. The 50% inhibitory concentrations (IC50) were measured for fangchinoline derivatives using MTT (diphenyltetrazolium bromide) assay.

[2] = test system: human melanoma WM9 cell line; experiment: MTT in vitro cytotoxicity assay, WM9; assay type: cell-based; details: for IC50: Homo sapiens, read-out: IC50 (µM) WM9
Method: as §1, §2, §3

[3] = test system: human leukaemia K562 cell line; experiment: MTT in vitro cytotoxicity assay, K562; assay type: cell-based; details: read-out: IC50 (µM) K562
Method: as §1, §2, §3

[4] = test system: human prostate cancer PC3 cell line; experiment: MTT in vitro cytotoxicity assay, PC3; assay type: cell-based; details: read-out: IC50 (µM) PC3
Method: as §1, §2, §3

[5] = test system: human breast cancer MDA-MB-231 cell line; experiment: MTT in vitro cytotoxicity assay, MDA-MB-231; assay type: cell-based; details: read-out: IC50 (µM) MDA-MB-231
Method: as §1, §2, §3

[6] = Toxicity on normal human liver cell line; assay type: cell-based; details: HL7702 normal liver cells; normal human liver cell line HL7702; read-out: IC50 against HL7702 cell growth
Method: (§4) 3 fangchinoline derivatives were also tested for their toxicities on normal human liver cell line HL7702.
as §3

[7] = test system: normal human liver cell line HL7702; experiment: Toxicity on normal human liver cell line; assay type: cell-based; details: HL7702 versus cancer cell lines
Method: as §4, §3

[8] = test system: WM9 cells; experiment: Annexin V-FITC/PI flow cytometry apoptosis assay; assay type: cell-based, human; details: 2.5 µM, 24 h
Method: The Annexin V-FITC-A/PI apoptosis detection kit was induced to test the further role of compound 4g in inhibiting WM9 cell death (Figure 2). Before undergoing the flow cytometry, the WM9 cells were treated with 0 and 2.5 µM compound 4g for 24 h, and then Annexin V-FITC and PI were put into use.
For apoptosis analysis, WM9 cells were incubated with compounds or DMSO as a vehicle control for 24 h. Cells were then washed with cold PBS, stained with Annexin V-FITC and Propidium Iodide (PI) using apoptosis detection Kit (BD Biosciences, Bergen, NJ, USA).
Figure 2 Compound 4g induced apoptosis in WM9 cells. WM9 cells were stained with Annexin V-FITC and PI by incubating at room temperature for 15 min after treated cells with 2.5 µM 4g for 24 h. Finally, apoptosis analysis was carried out by flow cytometry. TEXT PRINTED IN THE PICTURE: Y-37: WM9 24h: Q4-UL 1.2% (2.5 μM); WM9 24h: Q4-UR 8.8% (2.5 μM); WM9 24h: Q4-LL 74.2% (2.5 μM); WM9 24h: Q4-LR 15.8% (2.5 μM) DOUBTS OF THE COPYIST ABOUT THIS PICTURE: Y-37, Q4-UR: 8.8% or 6.8%; the first digit is partly hidden by plotted points / The Control plot also prints quadrant percentages (Q4-UL 0.7%, Q4-UR 0.0%, Q4-LL 98.9%, Q4-LR 0.3%). They are not listed because Control is not a substance.

[9] = test system: Bcl-xl; experiment: Western blot of apoptosis indicators, Bcl-xl; assay type: cell-based, human; details: WM9 cells, 2.5 µM, 24 h
Method: (§5) Western blot analysis was induced to elucidate the effect of compound 4g on protein levels to further expatiate how compound 4g induces apoptosis in WM9 cells (Figure 3). The Bcl-xl, Bcl-2 and Survivin display repressor activities in cell death.
(§6) The total protein was collected from WM9 cells using RIPA lysis buffer, and separated on 10% SDS Page, as described. The protein was then transferred to polyvinylidene fluoride (PVDF, 0.2 µm) membrane, and blocked by 5% BSA solution for 2 h at room temperature. The membrane was then incubated with specific primary antibodies overnight at 4 °C, followed by incubation with corresponding HRP-conjugated secondary antibodies for 2 h at room temperature. Expression of particular proteins was measured by applying ECL select substrate (Li-Cor, Lincoln, NE, USA). Polyclonal rabbit antibody for Bcl-2 was obtained from Abcam (Abcam, Cambridge, UK); Bcl-xl, Survivin, Casepase-3 and PARP antibodies from Cell Signalling Technology (CST, Danvers, MA, USA) and GAPDH from Goodhere Biotechnology (Hangzhou, Zhejiang, China).
(§7) Figure 3 Fangchinoline derivative 4g affects the protein levels of the apoptotic genes in WM9 cell line. […] WM9 cells were treated with 2.5 μM 4g for 24 h.

[10] = test system: Survivin; experiment: Western blot of apoptosis indicators, Survivin; assay type: cell-based, human; details: WM9 cells, 2.5 µM, 24 h
Method: as §5, §6, §7

[11] = test system: Caspase-3; experiment: Western blot of apoptosis indicators, Caspase-3; assay type: cell-based, human; details: WM9 cells, 2.5 µM, 24 h
Method: as §5, §6, §7

[12] = test system: Bcl-2; experiment: Western blot of apoptosis indicators, Bcl-2; assay type: cell-based, human; details: WM9 cells, 2.5 µM, 24 h
Method: as §5, §6, §7

[13] = test system: PARP; experiment: Western blot of apoptosis indicators, PARP; assay type: cell-based, human; details: WM9 cells, 2.5 µM, 24 h
Method: as §5, §6, §7

[14] = test system: human hepatocellular carcinoma cell line PLC/PRF/5; set-up: method as in PMID 21418191; details: autophagy induction at relatively low concentrations; cited from earlier work
[15] = test system: human hepatocellular carcinoma cell line HepG2; set-up: method as in PMID 21418191; details: autophagy induction at relatively low concentrations; cited from earlier work
[16] = MTT assay after 48 h of treatment, averaged from at least 3 independent experiments, variation ±10%
[17] = WM9, MTT assay after 48 h of treatment, averaged from at least 3 independent experiments, variation ±10%
[18] = K562, MTT assay after 48 h of treatment, averaged from at least 3 independent experiments, variation ±10%
[19] = PC-3, MTT assay after 48 h of treatment, averaged from at least 3 independent experiments, variation ±10%
[20] = MDA-MB-231, MTT assay after 48 h of treatment, averaged from at least 3 independent experiments, variation ±10%

Compound	IC50 [1, 16]	IC50 [2, 17]	IC50 [3, 18]	IC50 [4, 19]	IC50 [5, 20]	other results
COc1ccc2cc1Oc1ccc(cc1)C[C@H]1c3cc(c(OC)cc3CCN1C)Oc1c(OCc3ccccc3)c(OC)cc3c1[C@H](C2)N(C)CC3 [Compound 1a, 7-O-Benzyl-fangchinoline]	4.42 µM	3.44 µM	4.75 µM	3.65 µM	5.13 µM	–
COc1ccc2cc1Oc1ccc(cc1)C[C@H]1c3cc(c(OC)cc3CCN1C)Oc1c(OCC=C(C)C)c(OC)cc3c1[C@H](C2)N(C)CC3 [Compound 1b, 7-O-(3-Methylbut-1-ene)-fangchinoline]	4.01 µM	5.56 µM	6.6 µM	7.22 µM	4.44 µM	–
C=CCOc1c(OC)cc2c3c1Oc1cc4c(cc1OC)CCN(C)[C@H]4Cc1ccc(cc1)Oc1cc(ccc1OC)C[C@@H]3N(C)CC2 [Compound 1c, 7-O-(Prop-1-ene)-fangchinoline]	4.72 µM	3.05 µM	6.78 µM	4.75 µM	5.04 µM	–
COc1cc([N+](=O)[O-])c2cc1Oc1ccc(cc1)C[C@H]1c3cc(c(OC)cc3CCN1C)Oc1c(OCc3ccccc3)c(OC)cc3c1[C@H](C2)N(C)CC3 [Compound 2a, 7-Benzyl-14-nitro-fangchinoline]	8.96 µM	3.04 µM	8.33 µM	3.69 µM	8.6 µM	IC50 at 2 days [6]: 5.6 µM
COc1ccc2cc1Oc1ccc(cc1)C[C@H]1c3cc(c(OC)cc3CCN1C)Oc1c(OC(C)=O)c(OC)cc3c1[C@H](C2)N(C)CC3 [Compound 3a, 7-O-Acetyl-fangchinoline]	2.75 µM	2.65 µM	6.99 µM	3.01 µM	6.67 µM	–
COc1ccc2cc1Oc1ccc(cc1)C[C@H]1c3cc(c(OC)cc3CCN1C)Oc1c(OS(=O)(=O)c3ccc(C)cc3)c(OC)cc3c1[C@H](C2)N(C)CC3 [Compound 3b, 7-O-Tosyl-fangchinoline]	2.95 µM	3.95 µM	3.85 µM	3.59 µM	4.61 µM	–
COc1ccc2cc1Oc1ccc(cc1)C[C@H]1c3cc(c(OC)cc3CCN1C)Oc1c(OS(=O)(=O)c3ccccc3[N+](=O)[O-])c(OC)cc3c1[C@H](C2)N(C)CC3 [Compound 3c, 7-O-(o-Nirtobenzessulfonyl)-fangchinoline]	6.82 µM	3.58 µM	4.06 µM	4.76 µM	8.7 µM	–
COc1ccc2cc1Oc1ccc(cc1)C[C@H]1c3cc(c(OC)cc3CCN1C)Oc1c(OC(=O)c3ccco3)c(OC)cc3c1[C@H](C2)N(C)CC3 [Compound 3g, 7-O-(Furan-m-formyl)-fangchinoline]	4.04 µM	3.13 µM	6.39 µM	4.33 µM	6.02 µM	IC50 at 2 days [6]: 17.3 µM; fold lower toxicity on HL7702 than inhibition on cancer cell lines [7]: ~3 fold
COc1ccc2cc1Oc1ccc(cc1)C[C@H]1c3cc(c(OC)cc3CCN1C)Oc1c(OC(=O)c3ccccc3)c(OC)cc3c1[C@H](C2)N(C)CC3 [Compound 3i, 7-O-Benzoyl-fangchinoline]	2.04 µM	2.73 µM	2.86 µM	4.57 µM	3.46 µM	–
COc1cc(Br)c2cc1Oc1ccc(cc1)C[C@H]1c3cc(c(OC)cc3CCN1C)Oc1c(OC(=O)c3ccccc3)c(OC)c(Br)c3c1[C@H](C2)N(C)CC3 [Compound 4a, 7-O-Benzoyl-5,14-dibromo-fangchinoline]	2.65 µM	2.51 µM	2.45 µM	4.22 µM	4.12 µM	–
COc1cc(Cl)c2cc1Oc1ccc(cc1)C[C@H]1c3cc(c(OC)cc3CCN1C)Oc1c(OC(=O)c3ccccc3)c(OC)c(Cl)c3c1[C@H](C2)N(C)CC3 [Compound 4b, 7-O-Benzoyl-5,14-dichloro-fangchinoline]	5.11 µM	3.54 µM	3.16 µM	3.85 µM	7.22 µM	–
COc1cc([N+](=O)[O-])c2cc1Oc1ccc(cc1)C[C@H]1c3cc(c(OC)cc3CCN1C)Oc1c(OC(=O)c3ccccc3)c(OC)cc3c1[C@H](C2)N(C)CC3 [Compound 4g, 7-O-Benzoyl-14-nitro-fangchinoline]	1.98 µM	1.07 µM	2.09 µM	2.03 µM	2.92 µM	times more active than first stage derivative 3i on WM9 ([2]; WM9 IC50 ratio versus 3i): 2.5 times; times more active than fangchinoline on WM9 ([2]; WM9 IC50 ratio versus fangchinoline): 12.2 times; times more active than vincristine on WM9 ([2]; WM9 IC50 ratio versus vincristine): 9.8 times; WM9 cells in the early apoptosis state ([8]; control 0.0%): 8.8%; WM9 cells in the late apoptosis state ([8]; control 0.3%): 15.8%; Bcl-xl expression (Western blot) [9]: inhibited; Survivin expression (Western blot) [10]: inhibited; Pro-Caspase-3 / Cleaved-Caspase-3 (Western blot) [11]: activation of executioner from Pro-Caspase-3 to Cleaved-Caspase-3; Bcl-2 expression (Western blot) [12]: inhibited; IC50 at 2 days [6]: 5 µM; fold lower toxicity on HL7702 than inhibition on cancer cell lines [7]: ~5 fold; full-length PARP level (Western blot) [13]: down-regulation of full-length PARP
COc1ccc2cc1Oc1ccc(cc1)C[C@H]1c3cc(c(OC)cc3CCN1C)Oc1c(O)c(OC)cc3c1[C@H](C2)N(C)CC3 [Fangchinoline]	–	–	–	–	–	IC50 ([1]; 48 h): 8.95 µM; IC50 ([2]; WM9, 48 h): 13.1 µM; IC50 [14]: ~5 µM; IC50 ([3]; K562, 48 h): 10.3 µM; IC50 ([4]; PC-3, 48 h): 11.1 µM; IC50 [15]: ~5 µM; IC50 ([5]; MDA-MB-231, 48 h): 12.3 µM
CC[C@]1(O)C[C@H]2CN(CCc3c([nH]c4ccccc34)[C@@](C(=O)OC)(c3cc4c(cc3OC)N(C=O)[C@H]3[C@@](O)(C(=O)OC)[C@H](OC(C)=O)[C@]5(CC)C=CCN6CC[C@]43[C@@H]65)C2)C1 [Vincristine, reference compound]	6.38 µM	10.6 µM	5.62 µM	5.36 µM	13.1 µM	–
